Legend:
[1] = system: P. falciparum NF54 in An. coluzzii; test: Standard membrane feeding assay (SMFA) with AMPs added to gametocytaemic blood mix; oocyst counts in mosquito midguts; format: in vivo, Plasmodium falciparum; details: AMP at 50 μM final concentration in gametocytaemic blood mix fed to An. coluzzii; vs PBS-treated control; oocysts counted seven days post-infection; P < 0.001; Fig. 4a
Description: The An. coluzzii N’gousso strain colonized from field-collected mosquitoes of the An. gambiae M molecular form in 2006 in Yaoundé, Cameroon, and the P. falciparum NF54 strain (MRA-1000, patient E) obtained from the MR4 were used for all the experiments reported in this paper. Mosquitoes were reared and maintained at standard insectary conditions (27 ± 1 °C and 70 ± 5%) humidity on a 12:12 light/dark (L:D) cycle: 11.5 h full light of ~ 300 lx starting at 6 am and 11.5 h darkness starting at 6 p.m., separated by 0.5 h dawn and dusk transitions, respectively. All mosquito infection experiments took place between 2 and 4 p.m.
Day 16/17. Gametocyte feeding A 14/15-day old gametocyte culture is used for mosquito infections. Three hours before gametocyte feed, the fructose-soaked cotton ball is removed from the cups to starve the mosquitoes, and mosquito cups are placed in the dark inside a second container for biosafety reasons. The container is placed in an incubator set at standard insectary conditions described above.
One hour before feeding heat-inactivated human serum (56 °C for 30 min) is defrosted at RT and placed on heat block at 37 °C. […]
The gametocyte culture is hand-swirled and placed on 37 °C heat block. […] The number of exflagellation centres formed in the 4 × 4 grid is determined under the microscope (10× objective). […]

[2] = system: P. berghei ookinetes; details: 50 μM concentration; in vitro produced P. berghei ookinetes; cited from earlier work
Description: (§1) AMPs from various sources with different levels of plasmodicidal activities have been previously discovered. […] Both AMPs were previously shown to induce parasite killing.

[3] = system: P. berghei; details: in both An. coluzzii and Anopheles stephensi; cited from earlier work
Description: as §1

[4] = system: P. falciparum; details: mixed with gametocytic blood; An. coluzzii; no reference printed in this sentence (preceding sentence ref 34); cited from earlier work
Description: as §1

[5] = system: different Plasmodium species; details: injection into anopheline mosquitoes previously infected with different Plasmodium species; cited from earlier work
Description: as §1

Substance	transmission-blocking activity (oocyst infection intensity) compared to control [1]	killing of ookinetes [2]	infection prevalence and intensity [3]	P. falciparum oocyst prevalence and intensity [4]	effect on parasite sporogony [5]
melittin	significant transmission-blocking activity	kill	significant decrease in infection prevalence and intensity	reduce P. falciparum oocyst prevalence and intensity	–
magainin	significant transmission-blocking activity	–	–	–	completely block parasite sporogony

Reference: paper PMC6347765, “Streamlined SMFA and mosquito dark-feeding regime significantly improve malaria transmission-blocking assay robustness and sensitivity” (Malaria Journal, 2019)
